{"source": "patent US20240308988A1", "about": "“Method For Controlling Diamide Resistant Pests and Compounds Therefor” (priority 2021, published 2024)", "data": [{"system": "Resistant Plutella xylostella R1 (multi-resistant larvae having the G4946E resistance mutation)", "experiment": "Resistant Plutella xylostella R1 (Diamond back moth) larvicide L3, feeding/contact, sprayed Chinese cabbage leaves", "type": "in vivo", "conditions": "Plutella xylostella, 96 h, read-out: control of the resistant strain of Plutella xylostella R1", "procedure": "Resistant Plutella xylostella R1 (Diamond back moth) larvicide L3, feeding/contact Chinese cabbage plants were sprayed with diluted test solutions in an application chamber. Cut off leaves were placed into petri dishes with wetted filter paper and infested 1 day after application with 10 L3 multi-resistant Plutella xylostella larvae having the G4946E resistance mutation.\nSamples were assessed 4 days after infestation for mortality and growth regulation.\nChlorantraniliprole was used as standard and a resistance factor of 146 was obtained for this strain.\nPlutella xylostella resistant strain R1 originally collected from Taiwan in 2012 that carries the RyR mutation G4946E conferring resistance to diamides. The strain is reared on cabbage plants (Brassica aleracea) and selected approximately every two weeks with chlorantraniliprole.", "units": {"pest or weed control at 50 µg/mL": "%"}, "values": [{"molecule": "Cc1cc(Cl)cc(C(N)=O)c1NC(=O)c1cc(C(F)F)nn1-c1ncccc1Cl", "note": "[Compound P22, N-(2-carbamoyl-4-chloro-6-methyl-phenyl)-2-(3-chloro-2-pyridyl)-5-(difluoromethyl)pyrazole-3-carboxamide]", "pest or weed control at 50 µg/mL": "≥ 80"}, {"molecule": "Cc1cc(Cl)cc(C(N)=O)c1NC(=O)c1cc(Cn2nnc(C3CC3)n2)nn1-c1ncccc1Cl", "note": "[Compound P2, N-(2-carbamoyl-4-chloro-6-methyl-phenyl)-2-(3-chloro-2-pyridyl)-5-[(5-cyclopropyltetrazol-2-yl)methyl]pyrazole-3-carboxamide]", "pest or weed control at 50 µg/mL": "≥ 80"}, {"molecule": "COc1cc(C(=O)Nc2c(C)cc(I)cc2C(N)=O)n(-c2ncccc2Cl)n1", "note": "[Compound P10, N-(2-carbamoyl-4-iodo-6-methyl-phenyl)-2-(3-chloro-2-pyridyl)-5-methoxy-pyrazole-3-carboxamide]", "pest or weed control at 50 µg/mL": "≥ 80"}, {"molecule": "Cc1cc(Cl)cc(C(N)=O)c1NC(=O)c1cc(Cn2ncc(C(F)(F)F)n2)nn1-c1ncccc1Cl", "note": "[Compound P19, N-(2-carbamoyl-4-chloro-6-methyl-phenyl)-2-(3-chloro-2-pyridyl)-5-[[4-(trifluoromethyl)triazol-2-yl]methyl]pyrazole-3-carboxamide]", "pest or weed control at 50 µg/mL": "≥ 80"}, {"molecule": "Cc1cc(Cl)cc(C(N)=O)c1NC(=O)c1cc(Cn2cc(C(F)(F)F)nn2)nn1-c1ncccc1Cl", "note": "[Compound P20, N-(2-carbamoyl-4-chloro-6-methyl-phenyl)-2-(3-chloro-2-pyridyl)-5-[[4-(trifluoromethyl)triazol-1-yl]methyl] pyrazole-3-carboxamide]", "pest or weed control at 50 µg/mL": "≥ 80"}, {"molecule": "Cc1cc(C#N)cc(C(N)=O)c1NC(=O)c1cc(C(F)F)nn1-c1ncccc1Cl", "note": "[Compound P28, N-(2-carbamoyl-4-cyano-6-methyl-phenyl)-2-(3-chloro-2-pyridyl)-5-(difluoromethyl)pyrazole-3-carboxamide]", "pest or weed control at 50 µg/mL": "≥ 80"}, {"molecule": "Cc1cc(I)cc(C(N)=O)c1NC(=O)c1cc(Cn2nnc(-c3ccc(C(F)(F)F)cc3)n2)nn1-c1ncccc1Cl", "note": "[Compound P62, N-(2-carbamoyl-4-iodo-6-methyl-phenyl)-2-(3-chloro-2-pyridyl)-5-[[5-[4-(trifluoromethyl)phenyl]tetrazol-2-yl]methyl]pyrazole-3-carboxamide]", "pest or weed control at 50 µg/mL": "≥ 80"}, {"molecule": "Cc1cc(Cl)cc(C(N)=O)c1NC(=O)c1cc(Cn2nnnc2-c2ccc(C(F)(F)F)cc2)nn1-c1ncccc1Cl", "note": "[Compound P15, N-(2-carbamoyl-4-chloro-6-methyl-phenyl)-2-(3-chloro-2-pyridyl)-5-[[5-[4-(trifluoromethyl)phenyl]tetrazol-1-yl]methyl]pyrazole-3-carboxamide]", "pest or weed control at 50 µg/mL": "≥ 80"}, {"molecule": "Cc1cc(Cl)cc(C(N)=O)c1NC(=O)c1cc(Cn2nnc(-c3ccc(C(F)(F)F)cc3)n2)nn1-c1ncccc1Cl", "note": "[Compound P6, N-(2-carbamoyl-4-chloro-6-methyl-phenyl)-2-(3-chloro-2-pyridyl)-5-[[5-[4-(trifluoromethyl)phenyl]tetrazol-2-yl]methyl]pyrazole-3-carboxamide]", "pest or weed control at 50 µg/mL": "≥ 80"}, {"molecule": "NC(=O)c1cc(Cl)cc(Br)c1NC(=O)c1cc(Cn2nnc(-c3ccc(C(F)(F)F)cc3)n2)nn1-c1ncccc1Cl", "note": "[Compound P57, N-(2-bromo-6-carbamoyl-4-chloro-phenyl)-2-(3-chloro-2-pyridyl)-5-[[5-[4-(trifluoromethyl)phenyl]tetrazol-2-yl]methyl]pyrazole-3-carboxamide]", "pest or weed control at 50 µg/mL": "≥ 80"}, {"molecule": "Cc1cc(C#N)cc(C(N)=O)c1NC(=O)c1cc(OCC(F)(F)F)nn1-c1ncccc1Cl", "note": "[Compound P32, N-(2-carbamoyl-4-cyano-6-methyl-phenyl)-2-(3-chloro-2-pyridyl)-5-(2,2,2-trifluoroethoxy)pyrazole-3-carboxamide]", "pest or weed control at 50 µg/mL": "≥ 80"}, {"molecule": "NC(=O)c1cc(Br)cc(Cl)c1NC(=O)c1cc(Cn2nnc(-c3ccc(C(F)(F)F)cc3)n2)nn1-c1ncccc1Cl", "note": "[Compound P44, N-(4-bromo-2-carbamoyl-6-chloro-phenyl)-2-(3-chloro-2-pyridyl)-5-[[5-[4-(trifluoromethyl)phenyl]tetrazol-2-yl]methyl]pyrazole-3-carboxamide]", "pest or weed control at 50 µg/mL": "≥ 80"}]}, {"system": "Plutella xylostella (Diamond back moth) ryanodine receptor, containing the G4946E resistance mutation", "experiment": "In vitro calcium fluorescence assay (Fluo-8 NW, FDSS) in human embryonic kidney cells expressing the ryanodine receptor", "type": "cell-based", "conditions": "table; secondary amide analogue; EC50 (compound)/EC50 (cyantraniliprole); G4946E RyR in HEK cells", "procedure": "Human embryonic kidney cells expressing the Plutella xylostella (Diamond back moth) ryanodine receptor, containing the G4946E resistance mutation, are loaded with Fluo-8 No Wash (NW) calcium-sensitive dye which responds by fluorescence to a change in intracellular calcium (e.g. stimulated by activation of ryanodine receptor). Test compounds are added in 10 rates to a 384-well plate containing dye-loaded cells and the fluorescent signal is measured using the Hamamatsu FDSS (Functional Drug Screening system). Dose-response curves are plotted to estimate the EC50. EC50 are normalized against an in-assay reference standard (cyantraniliprole) to address inter-assay variability. The ratio for a given compound is then obtained by the following formula:\nREC50=EC50 (compound)/EC50 (cyantraniliprole).", "values": [{"molecule": "Cc1cc(Br)cc(C(=O)NC(C)C)c1NC(=O)c1cc(C(F)(F)F)nn1-c1ncccc1Cl", "REC50 (Comparative compound)": 8.84}, {"molecule": "CNC(=O)c1cc(Br)cc(Br)c1NC(=O)c1cc(C(F)(F)F)nn1-c1ncccc1Cl", "REC50 (Comparative compound)": 0.98}, {"molecule": "CNC(=O)c1cc(Br)cc(Cl)c1NC(=O)c1cc(OC)nn1-c1ncccc1Cl", "REC50 (Comparative compound)": 1.32}, {"molecule": "CNC(=O)c1cc(Cl)cc(Cl)c1NC(=O)c1cc(OC)nn1-c1ncccc1Cl", "REC50 (Comparative compound)": 1.20}, {"molecule": "CNC(=O)c1cc(Cl)cc(C)c1NC(=O)c1cc(OC(F)F)nn1-c1ncccc1Cl", "REC50 (Comparative compound)": 0.58}, {"molecule": "CNC(=O)c1cc(Cl)cc(C)c1NC(=O)c1cc(OCC(F)(F)F)nn1-c1ncccc1Cl", "REC50 (Comparative compound)": 1.29}, {"molecule": "CNC(=O)c1cc(Br)cc(C)c1NC(=O)c1cc(OC)nn1-c1ncccc1Cl", "REC50 (Comparative compound)": 1.39}, {"molecule": "CC(NC(=O)c1cc(Cl)cc(Br)c1NC(=O)c1cc(Br)nn1-c1ncccc1Cl)C1CC1", "note": "(stereo not drawn) [Cyclaniliprole, cyclaniliprole, reference compound]", "REC50 (Comparative compound)": 4.70}, {"molecule": "CNC(=O)c1cc(Cl)cc(C)c1NC(=O)c1cc(C(F)(F)F)nn1-c1ncccc1Cl", "REC50 (Comparative compound)": 1.48}, {"molecule": "CNC(=O)c1cc(C#N)cc(C)c1NC(=O)c1cc(Br)nn1-c1ncccc1Cl", "note": "[Cyantraniliprole, cyantraniliprole, reference compound]", "REC50 (Comparative compound)": 1.00}, {"molecule": "CNC(=O)c1cc(Cl)cc(C)c1NC(=O)c1cc(OCC(F)(F)C(F)(F)F)nn1-c1ncccc1Cl", "REC50 (Comparative compound)": 1.85}, {"molecule": "CNC(=O)c1cc(Cl)cc(Cl)c1NC(=O)c1cc(Br)nn1-c1ncc(Cl)cc1Cl", "REC50 (Comparative compound)": 0.47}, {"molecule": "CNC(=O)c1cc(C#N)cc(C)c1NC(=O)c1cc(Cn2nnc(-c3ccc(C(F)(F)F)cc3)n2)nn1-c1ncccc1Cl", "REC50 (Comparative compound)": 2.41}, {"molecule": "CNC(=O)c1cc(C#N)cc(C)c1NC(=O)c1cc(C(F)(F)F)nn1-c1ncccc1Cl", "REC50 (Comparative compound)": 3.65}, {"molecule": "CNC(=O)c1cc(Cl)cc(C)c1NC(=O)c1cc(C2CC2)nn1-c1ncccc1Cl", "REC50 (Comparative compound)": 1.15}, {"molecule": "COc1cc(C(=O)Nc2c(C)cc(Cl)cc2C(=O)NC(C)C)n(-c2ncccc2Cl)n1", "REC50 (Comparative compound)": 2.57}, {"molecule": "Cc1cc(Cl)cc(C(=O)NC(C)C)c1NC(=O)c1cc(COCc2ccc(Cl)cc2)nn1-c1ncccc1Cl", "REC50 (Comparative compound)": 1.07}, {"molecule": "Cc1cc(I)cc(C(=O)NC(C)C)c1NC(=O)c1cc(C(F)(F)F)nn1-c1ncccc1Cl", "REC50 (Comparative compound)": 3.13}, {"molecule": "CNC(=O)c1cc(I)cc(F)c1NC(=O)c1cc(C(F)(F)F)nn1-c1ncccc1Cl", "REC50 (Comparative compound)": 3.99}, {"molecule": "CCc1cc(C(=O)Nc2c(C)cc(Cl)cc2C(=O)NC)n(-c2ncccc2Cl)n1", "REC50 (Comparative compound)": 1.41}, {"molecule": "CNC(=O)c1cc(I)cc(C)c1NC(=O)c1cc(Br)nn1-c1ncccc1Cl", "REC50 (Comparative compound)": 0.76}]}]}
